Measured values as given in patent US20220088127A1, “TARGETING THE BAG FAMILY FOR THE TREATMENT OF NEURODEGENERATIVE DISEASE” (Temple University - of the Commonwealth System of Higher …, priority 2019, published 2022).
Peptide text beside a SMILES is read from it. * marks the point of attachment. Cbz = O=C(OCc1ccccc1)*

Tested on: BAG3
Experiment: BAG3 protein level by Western blot
Format: cell-based, rat
Experimental: Dissociated cell cultures of hippocampal and cortical neurons were prepared using dissected E18 prenatal rat embryonic brains. After digestion in 0.25% trypsin solution, neurons were plated on tissue culture plates and slides pre-coated with poly-D-lysine (Sigma, St. Louis, Mo.) and laminin (Invitrogen 23017, USA). Cells were maintained 14 days prior to treatments. Neurons were transduced with Ad-Null (Vector Biolabs, Malvern, Pa.), Ad-Tat (made in-house), Ad-siBAG3 (Vector Biolabs, Malvern, Pa.) and Ad-BAG3 (Vector Biolabs, Malvern, Pa.) with MOI 1 to 4 or recombinant Tat protein (50 ng/ml, full length, 101 amino acids, Immunodiagnostics, MA). Tat bioactivity was verified by the LTR-luciferase assay. MG132 (5 μM) and Bafilomycin A 1 (50 nM, Sigma) were applied for 4 h prior to lysis to block proteasome and lysosomal autophagy, respectively.
Neuronal and mouse brain tissue lysates were prepared using RIPA lysis buffer (whole cell extract), Tris-Triton (soluble fraction) or 2% SDS in PBS (insoluble fraction), all containing protease inhibitor cocktail (Sigma-Aldrich, St. Louis, Mo.). Protein concentration was measured using Bio-Rad protein assay reagent (Bio-Rad, Hercules, Calif.). SDS-polyacrylamide gels, 10-12%, and nitrocellulose membranes (LI-COR, Inc., Lincoln, Nebr.) were used for electrophoretic protein separation and transfer, respectively. […]

SMILES	BAG3 levels in Tat-expressing neurons under proteasome inhibition (MG132 for 4 h on day 3 post-transduction)	BAG3 levels in Tat-expressing neurons under lysosomal inhibition (Bafilomycin A1)
CC(C)C[C@@H](C=O)NC(=O)[C@H](CC(C)C)NC(=O)[C@H](CC(C)C)NC(=O)OCc1ccccc1 [MG132] (Cbz-Leu-Leu-Leu-aldehyde)	not altered	
CO/C1=C\C(C)=C\[C@@H](C)[C@@H](O)[C@@H](C)C/C(C)=C/C=C/[C@H](OC)[C@@H]([C@@H](C)[C@@H](O)[C@H](C)[C@@]2(O)C[C@@H](O)[C@H](C)[C@@H](C(C)C)O2)OC1=O [Baf A1, Bafilomycin A1]		no significant changes
